Molecular target: Insulin-like growth factor 1 receptor (Homo sapiens, UniProt P08069)
Test: In Vitro Kinase Inhibition Assay
Details: pH 7.5; 22 °C
Description: Assays were performed in microtiter plates in reaction buffer containing biotinylated substrate, ATP, and purified kinase in the presence of test compounds. After incubation, product was detected using a homogeneous time-resolved fluorescence […] assay (LANCE).

Sequence of Insulin-like growth factor 1 receptor (P08069 31-736 limits assumed): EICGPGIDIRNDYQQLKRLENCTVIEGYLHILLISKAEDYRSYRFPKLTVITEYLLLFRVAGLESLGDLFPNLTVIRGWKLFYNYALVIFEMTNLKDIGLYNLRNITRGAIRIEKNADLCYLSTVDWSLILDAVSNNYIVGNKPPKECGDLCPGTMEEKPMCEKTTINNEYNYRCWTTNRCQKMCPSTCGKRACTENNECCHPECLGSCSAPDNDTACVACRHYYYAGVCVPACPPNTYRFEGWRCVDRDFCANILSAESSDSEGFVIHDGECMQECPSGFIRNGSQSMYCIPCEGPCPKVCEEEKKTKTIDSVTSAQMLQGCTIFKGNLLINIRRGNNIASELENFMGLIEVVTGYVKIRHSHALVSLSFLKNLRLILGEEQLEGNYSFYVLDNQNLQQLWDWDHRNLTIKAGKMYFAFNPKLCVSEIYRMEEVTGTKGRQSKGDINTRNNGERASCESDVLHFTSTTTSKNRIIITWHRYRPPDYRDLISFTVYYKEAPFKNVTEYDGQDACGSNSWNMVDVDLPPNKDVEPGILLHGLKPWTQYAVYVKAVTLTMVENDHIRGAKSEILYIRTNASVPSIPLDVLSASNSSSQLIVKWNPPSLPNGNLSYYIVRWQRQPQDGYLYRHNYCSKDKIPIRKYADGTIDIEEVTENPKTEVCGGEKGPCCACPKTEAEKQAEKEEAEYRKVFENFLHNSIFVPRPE
Sequence of Insulin-like growth factor 1 receptor (P08069 741-1367 limits assumed): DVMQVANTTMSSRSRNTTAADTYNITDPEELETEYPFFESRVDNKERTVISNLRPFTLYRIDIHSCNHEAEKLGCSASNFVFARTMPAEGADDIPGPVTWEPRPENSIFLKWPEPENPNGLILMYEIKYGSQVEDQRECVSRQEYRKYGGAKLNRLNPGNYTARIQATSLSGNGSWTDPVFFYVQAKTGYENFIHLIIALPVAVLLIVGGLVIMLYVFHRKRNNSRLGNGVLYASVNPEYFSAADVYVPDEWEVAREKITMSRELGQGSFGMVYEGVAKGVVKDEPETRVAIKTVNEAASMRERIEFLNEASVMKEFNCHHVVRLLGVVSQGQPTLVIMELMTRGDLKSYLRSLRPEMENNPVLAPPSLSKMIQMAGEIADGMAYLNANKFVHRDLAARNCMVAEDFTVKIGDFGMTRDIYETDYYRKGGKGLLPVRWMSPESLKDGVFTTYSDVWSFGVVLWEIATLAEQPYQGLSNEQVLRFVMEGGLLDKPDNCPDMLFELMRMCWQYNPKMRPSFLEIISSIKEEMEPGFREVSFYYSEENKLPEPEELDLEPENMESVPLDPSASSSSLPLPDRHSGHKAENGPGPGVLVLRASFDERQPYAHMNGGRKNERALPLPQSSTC

IC50, > 10 µM:
CCOC(=O)c1ccc(Nc2ccc3c(c2)C(=CNc2ccc(CN4CCCCC4)cc2)C(=O)NC3=O)cc1 [ethyl 4-{[(4Z)-1,3-dioxo-4-({[4-(piperidin-1-ylmethyl)phenyl]amino}methylidene)-1,2,3,4-tetrahydroisoquinolin-6-yl]amino}benzoate]
COc1cc(Nc2ccc3c(c2)C(=CNc2ccc(CN4CCCCC4)cc2)C(=O)NC3=O)cc(C(F)(F)F)c1 [(4Z)-6-{[3-methoxy-5-(trifluoromethyl)phenyl]amino}-4-({[4-(piperidin-1-ylmethyl)phenyl]amino}methylidene)-1,2,3,4-tetrahydroisoquinoline-1,3-dione]
CN(C)c1ccc(Nc2ccc3c(c2)C(=CNc2ccc(CN4CCCCC4)cc2)C(=O)NC3=O)cc1 [(4Z)-6-{[4-(dimethylamino)phenyl]amino}-4-({[4-(piperidin-1-ylmethyl)phenyl]amino}methylidene)-1,2,3,4-tetrahydroisoquinoline-1,3-dione]
Nc1cccc(Nc2ccc3c(c2)C(=CNc2ccc(CN4CCCCC4)cc2)C(=O)NC3=O)c1 [(4Z)-6-[(3-aminophenyl)amino]-4-({[4-(piperidin-1-ylmethyl)phenyl]amino}methylidene)-1,2,3,4-tetrahydroisoquinoline-1,3-dione]
O=C1NC(=O)c2ccc(Nc3cccc(Cl)c3)cc2C1=CNc1ccccc1 [(4Z)-6-[(3-chlorophenyl)amino]-4-[(phenylamino)methylidene]-1,2,3,4-tetrahydroisoquinoline-1,3-dione]
COc1cccc(Nc2ccc3c(c2)C(=CNc2ccccc2)C(=O)NC3=O)c1 [(4Z)-6-[(3-methoxyphenyl)amino]-4-[(phenylamino)methylidene]-1,2,3,4-tetrahydroisoquinoline-1,3-dione]
O=C1NC(=O)c2ccc(Nc3ccc4[nH]ccc4c3)cc2C1=CNc1ccc(CN2CCCCC2)cc1 [(4Z)-6-(1H-indol-5-ylamino)-4-({[4-(piperidin-1-ylmethyl)phenyl]amino}methylidene)-1,2,3,4-tetrahydroisoquinoline-1,3-dione]
Cc1cccc(Nc2ccc3c(c2)C(=CNc2ccc(CN4CCCCC4)cc2)C(=O)NC3=O)c1 [(4Z)-6-[(3-methylphenyl)amino]-4-({[4-(piperidin-1-ylmethyl)phenyl]amino}methylidene)-1,2,3,4-tetrahydroisoquinoline-1,3-dione]
O=C1NC(=O)c2ccc(Nc3cccc(C(F)(F)F)c3)cc2C1=CNc1ccc(CN2CCCCC2)cc1 [(4Z)-4-({[4-(piperidin-1-ylmethyl)phenyl]amino}methylidene)-6-{[3-(trifluoromethyl)phenyl]amino}-1,2,3,4-tetrahydroisoquinoline-1,3-dione]
O=C1NC(=O)c2ccc(Nc3ccc(Cl)cc3)cc2C1=CNc1ccc(CN2CCCCC2)cc1 [(4Z)-6-[(4-chlorophenyl)amino]-4-({[4-(piperidin-1-ylmethyl)phenyl]amino}methylidene)-1,2,3,4-tetrahydroisoquinoline-1,3-dione]

Source: BindingDB's records for doi:10.1016/j.bmcl.2008.04.044 (Wyeth Research, 2008)
